This is an account of results in patent US10513521B2, “Compositions and methods for inhibiting BMP” (The Brigham and Women's Hospital, Inc., priority 2014, dated 2019).

Assay [1] has as its target ALK3 (Homo sapiens, UniProt P36894). Put plainly: TR-FRET enzymatic ALK kinase assay, ALK3.
Procedure: (§1) Briefly, the ALKs enzymatic assay was initiated by dispense 2.5 μl enzyme in 1× kinase reaction buffer. The assay plate was then added with compounds followed by incubation at room temperature for 10 minutes. Then 2.5 μl/well substrate was added.
For assay [2], the target named is T1, ALK4 (Homo sapiens, UniProt P36896).
T1 sequence (P36896 24-505): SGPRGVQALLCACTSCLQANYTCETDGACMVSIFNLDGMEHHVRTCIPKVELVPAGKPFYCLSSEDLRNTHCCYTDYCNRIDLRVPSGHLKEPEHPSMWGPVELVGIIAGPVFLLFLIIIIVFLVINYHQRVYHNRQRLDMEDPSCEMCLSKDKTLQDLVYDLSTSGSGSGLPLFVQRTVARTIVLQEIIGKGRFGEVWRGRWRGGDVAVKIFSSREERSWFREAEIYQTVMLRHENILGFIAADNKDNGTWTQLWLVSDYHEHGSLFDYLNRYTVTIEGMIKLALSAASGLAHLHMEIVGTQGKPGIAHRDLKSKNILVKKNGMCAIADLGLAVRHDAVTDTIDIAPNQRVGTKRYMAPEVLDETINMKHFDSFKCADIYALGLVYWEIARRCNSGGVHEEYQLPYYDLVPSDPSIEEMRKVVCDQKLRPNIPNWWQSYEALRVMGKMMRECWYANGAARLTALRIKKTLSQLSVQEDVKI
Put plainly: TR-FRET enzymatic ALK kinase assay, ALK4.
Procedure: as §1

Assay [3] has as its target T2, ALK2 (Mus musculus, UniProt P37172).
T2 construct: The C2C12 cell line was selected for the measurement of ALK2 activity using BMP6 as the agonist; host or cells: C2C12
T2 sequence (P37172 21-509): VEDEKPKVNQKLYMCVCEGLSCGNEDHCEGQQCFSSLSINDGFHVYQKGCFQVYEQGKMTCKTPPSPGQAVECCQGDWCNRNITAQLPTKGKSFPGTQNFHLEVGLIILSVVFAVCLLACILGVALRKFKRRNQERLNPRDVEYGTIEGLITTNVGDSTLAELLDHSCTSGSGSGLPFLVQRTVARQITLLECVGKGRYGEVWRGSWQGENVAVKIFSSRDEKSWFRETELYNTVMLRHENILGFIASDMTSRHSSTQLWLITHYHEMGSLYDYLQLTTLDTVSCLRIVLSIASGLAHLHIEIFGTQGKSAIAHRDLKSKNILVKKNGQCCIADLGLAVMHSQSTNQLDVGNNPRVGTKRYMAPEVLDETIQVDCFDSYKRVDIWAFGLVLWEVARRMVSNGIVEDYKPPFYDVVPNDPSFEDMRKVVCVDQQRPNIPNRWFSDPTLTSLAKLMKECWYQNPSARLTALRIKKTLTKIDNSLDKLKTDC
As to the kind of experiment: HTRF pSMAD1 cell-based ALK2 assay (C2C12 cells, BMP6 as agonist). Conditions: cell-based assay, BMP6; read-out: Cell IC50 BMP6. In outline: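 Phospho-SMAD1 HTRF readout, detection incubated overnight at room temperature. Before that: starved cells in 0.1% FBS for 4 h, 30 min compound pretreatment, then 30 min agonist, BMP6 on C2C12 or BMP9 on BAOEC.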
On the technique in general: In TR-FRET formats the signal depends on donor and acceptor labels being close together.

The target in assay [4] is T3, ALK2 (Homo sapiens, UniProt Q04771).
T3 sequence (Q04771 21-509): T2 sequence (P37172 21-509) with V1M, Q10P, I121L, E162D, S310P
As to the kind of experiment: TR-FRET enzymatic ALK kinase assay, ALK2.
Procedure: as §1

The nature of assay [5]: Cell-based assay, TGFb1 (Cell IC50).
Assay [6] concerns the target T4, ALK5 (Homo sapiens, UniProt P36897).
T4 sequence (P36897 34-503): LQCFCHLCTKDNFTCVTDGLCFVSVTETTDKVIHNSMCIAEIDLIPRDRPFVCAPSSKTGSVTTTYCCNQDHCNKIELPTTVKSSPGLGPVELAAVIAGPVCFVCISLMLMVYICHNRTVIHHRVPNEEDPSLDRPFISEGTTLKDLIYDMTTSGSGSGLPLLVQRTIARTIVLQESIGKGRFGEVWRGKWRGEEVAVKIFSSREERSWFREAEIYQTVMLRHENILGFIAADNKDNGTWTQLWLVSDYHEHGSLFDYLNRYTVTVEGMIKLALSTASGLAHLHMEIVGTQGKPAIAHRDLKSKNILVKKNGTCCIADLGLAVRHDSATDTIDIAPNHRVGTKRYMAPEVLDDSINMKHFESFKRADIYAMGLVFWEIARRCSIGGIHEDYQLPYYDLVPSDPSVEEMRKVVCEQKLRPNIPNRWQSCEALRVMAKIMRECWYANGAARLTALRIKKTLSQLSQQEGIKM
Put plainly: TR-FRET enzymatic ALK kinase assay, ALK5.
Procedure: Six ALK kinase enzyme assays were developed for determination of compound activities on ALK1, ALK2, ALK3, ALK4, ALK5 and ALK6.
as §1

In assay [7] the target is ALK6 (Homo sapiens, UniProt O00238). Put plainly: TR-FRET enzymatic ALK kinase assay, ALK6.
Procedure: as §1
Assay [8] deals with ALK1 (Homo sapiens, UniProt P37023). As to the kind of experiment: TR-FRET enzymatic ALK kinase assay, ALK1.
Procedure: as §1

Numbering of substitutions follows the chain as printed. pIC50: −log10 of the molar value. Bounds are passed on as bounds.

ALK1, sequence (P37023 22-503): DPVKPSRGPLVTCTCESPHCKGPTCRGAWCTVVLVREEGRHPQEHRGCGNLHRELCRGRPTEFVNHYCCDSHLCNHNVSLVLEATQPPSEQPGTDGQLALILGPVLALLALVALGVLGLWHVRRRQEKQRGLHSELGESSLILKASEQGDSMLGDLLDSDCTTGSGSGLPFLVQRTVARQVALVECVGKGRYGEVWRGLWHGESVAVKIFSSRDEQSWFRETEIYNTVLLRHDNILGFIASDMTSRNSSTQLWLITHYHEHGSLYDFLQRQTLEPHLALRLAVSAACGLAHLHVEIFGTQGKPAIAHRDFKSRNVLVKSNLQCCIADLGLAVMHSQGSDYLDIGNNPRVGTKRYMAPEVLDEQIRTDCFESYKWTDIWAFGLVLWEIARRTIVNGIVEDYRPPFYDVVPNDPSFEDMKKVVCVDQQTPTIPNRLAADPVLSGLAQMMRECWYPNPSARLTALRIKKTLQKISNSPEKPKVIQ
ALK6, sequence (O00238 14-502): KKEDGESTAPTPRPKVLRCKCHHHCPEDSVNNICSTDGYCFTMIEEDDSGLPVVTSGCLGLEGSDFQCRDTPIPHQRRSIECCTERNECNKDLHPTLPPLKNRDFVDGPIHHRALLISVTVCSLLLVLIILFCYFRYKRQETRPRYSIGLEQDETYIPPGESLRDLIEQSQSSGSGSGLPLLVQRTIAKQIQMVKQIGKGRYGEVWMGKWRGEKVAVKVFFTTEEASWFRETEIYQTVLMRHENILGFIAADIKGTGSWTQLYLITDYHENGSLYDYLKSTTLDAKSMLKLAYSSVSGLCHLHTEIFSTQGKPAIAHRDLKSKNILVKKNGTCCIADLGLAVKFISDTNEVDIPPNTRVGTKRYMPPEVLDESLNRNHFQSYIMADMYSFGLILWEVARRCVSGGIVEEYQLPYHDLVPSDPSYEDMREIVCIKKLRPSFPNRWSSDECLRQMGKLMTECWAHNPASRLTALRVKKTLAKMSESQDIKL
ALK3, sequence (P36894 24-532): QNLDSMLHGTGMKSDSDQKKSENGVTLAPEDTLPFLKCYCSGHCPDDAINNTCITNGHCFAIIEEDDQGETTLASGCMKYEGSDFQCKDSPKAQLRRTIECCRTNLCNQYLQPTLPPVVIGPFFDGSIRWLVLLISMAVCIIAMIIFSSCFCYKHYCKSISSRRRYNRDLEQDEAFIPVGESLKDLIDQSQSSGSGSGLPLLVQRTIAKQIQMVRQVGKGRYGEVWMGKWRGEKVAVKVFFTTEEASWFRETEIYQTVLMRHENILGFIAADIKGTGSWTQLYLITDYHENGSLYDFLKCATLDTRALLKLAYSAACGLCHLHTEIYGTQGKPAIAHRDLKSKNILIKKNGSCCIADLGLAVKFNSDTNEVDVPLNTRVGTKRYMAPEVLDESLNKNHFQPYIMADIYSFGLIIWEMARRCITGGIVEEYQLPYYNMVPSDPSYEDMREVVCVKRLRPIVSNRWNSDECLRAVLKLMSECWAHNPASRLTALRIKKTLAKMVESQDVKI

Consider `CNS(=O)(=O)c1cccc2c(-c3cnn4cc(-c5ccc(N6[C@H](C)CNC[C@@H]6C)cc5)cnc34)cccc12` [Compound 41, 5-(6-(4-((2R,6S)-2,6-dimethylpiperazin-1-yl)phenyl)pyrazolo[1,5-a]pyrimidin-3-yl)-N-methylnaphthalene-1-sulfonamide], for which the negative logarithm of the IC50 (pIC50) (usually −log10 of the IC50, conventionally taken in molar units) was 5.80 in assay [1]; below 5.00 in assay [2]; 6.83 in assay [3]; 6.92 in assay [4]; 5.53 in assay [5]; below 5.00 in assay [6]. Besides, the pIC50 in assay [7] was 5.19; in assay [8] it was 6.27.

On to `NS(=O)(=O)c1cccc(-c2cnn3cc(-c4ccc(CCN5CCCCC5)cc4)cnc23)c1` [Compound 75, 3-(6-(4-(2-(piperidin-1-yl)ethyl)phenyl)pyrazolo[1,5-a]pyrimidin-3-yl)benzenesulfonamide], for which the negative logarithm of the IC50 (pIC50) in assay [1] was 5.20; in assay [2], below 5.00; in assay [3] it was 6.33; in assay [4] it was 6.92; in assay [5], 4.87; in assay [6] it was below 5.00. Moreover, the negative logarithm of the IC50 (pIC50) in assay [7] was below 5.00; in assay [8] it was 6.24.

For the compound `CNS(=O)(=O)c1cccc(-c2cnn3cc(-c4ccc(N5[C@H](C)CNC[C@@H]5C)cc4)cnc23)c1` [Compound 76, 3-(6-(4-((2R,6S)-2,6-dimethylpiperazin-1-yl)phenyl)pyrazolo[1,5-a]pyrimidin-3-yl)-N-methylbenzenesulfonamide], the pIC50 in assay [1] is 6.05; in assay [2], 5.32; in assay [3], 7.17; in assay [4] it was 7.70; in assay [5], 6.10; in assay [6], below 5.00. Also, the results for the pIC50 in assay [7] and in assay [8] were below 5.00 and 7.24, respectively.

Regarding `CCNS(=O)(=O)c1cccc(-c2cnn3cc(-c4ccc(N5[C@H](C)CNC[C@@H]5C)cc4)cnc23)c1` [Compound 77, 3-(6-(4-((2R,6S)-2,6-dimethylpiperazin-1-yl)phenyl)pyrazolo[1,5-a]pyrimidin-3-yl)-N-ethylbenzenesulfonamide], the pIC50 in assay [1] was 5.68; in assay [2] it was 5.37; in assay [3], 7.55; in assay [4], 7.51; in assay [5], 6.37; in assay [6], below 5.00. For the same compound, the values for the pIC50 in assay [7] and in assay [8] were below 5.00 and 6.96, respectively.

On to `Fc1ccc(-c2cnn3cc(-c4ccc(CCN5CCCCC5)cc4)cnc23)cc1-c1nnn[nH]1` [Compound 78, 3-(4-fluoro-3-(1H-tetrazol-5-yl)phenyl)-6-(4-(2-(piperidin-1-yl)ethyl)phenyl)pyrazolo[1,5-a]pyrimidine], for which the pIC50 was 6.72 in assay [1]; below 5.00 in assay [2]; 4.15 in assay [3]; 7.80 in assay [4]; 4.00 in assay [5]; below 5.00 in assay [6]. Also, the values for the negative logarithm of the IC50 (pIC50) in assay [7] and in assay [8] were 6.62 and 6.82, respectively.

Consider `C[C@@H]1CNC[C@H](C)N1c1ccc(-c2cnc3c(-c4cc(C#N)cc(S(N)(=O)=O)c4)cnn3c2)cc1` [Compound 79, 3-cyano-5-(6-(4-((2R,6S)-2,6-dimethylpiperazin-1-yl)phenyl)pyrazolo[1,5-a]pyrimidin-3-yl)benzenesulfonamide], for which the pIC50 in assay [1] was below 5.00; in assay [2] it was below 5.00; in assay [3], 5.05; in assay [4], 6.72; in assay [5] it was 5.00; in assay [6], below 5.00. The values for the pIC50 in assay [7] and in assay [8] were below 5.00 and 5.92, respectively.

`CN1CCC(c2ccc(-c3cnc4c(-c5ccc(S(N)(=O)=O)c6ccccc56)cnn4c3)cc2)CC1` [Compound 80, 4-(6-(4-(1-methylpiperidin-4-yl)phenyl)pyrazolo[1,5-a]pyrimidin-3-yl)naphthalene-1-sulfonamide]: the negative-log IC50 (pIC50) in assay [1] is below 5.00; in assay [2], below 5.00; in assay [3], 5.73; in assay [4], 7.46; in assay [5], below 4.00; in assay [6], below 5.00. The results for the pIC50 in assay [7] and in assay [8] were below 5.00 and 6.80, respectively.

Take `C[C@@H]1CNC[C@H](C)N1c1ccc(-c2cnc3c(-c4cccc(C(F)(F)F)c4)cnn3c2)cc1` [Compound 81, 6-(4-((2R,6S)-2,6-dimethylpiperazin-1-yl)phenyl)-3-(3-(trifluoromethyl)phenyl)pyrazolo[1,5-a]pyrimidine]: the pIC50 is below 5.00 in assay [1]; below 5.00 in assay [2]; 4.56 in assay [3]; 6.77 in assay [4]; below 4.00 in assay [5]; below 5.00 in assay [6]. In addition, the figures for the pIC50 in assay [7] and in assay [8] were below 5.00 and 6.06, respectively.

On to `C[C@@H]1CNC[C@H](C)N1c1ccc(-c2cnc3c(-c4ccc(F)c(C#N)c4)cnn3c2)cc1` [Compound 84, 5-(6-(4-((2R,6S)-2,6-dimethylpiperazin-1-yl)phenyl)pyrazolo[1,5-a]pyrimidin-3-yl)-2-fluorobenzonitrile], for which the pIC50 in assay [1] was below 5.00; in assay [2] it was below 5.00; in assay [3], 5.68; in assay [4], 6.92; in assay [5], 5.00; in assay [6] it was below 5.00. The negative-log IC50 (pIC50) in assay [7] was below 5.00; in assay [8], 6.07.

For the compound `C[C@@H]1CNC[C@H](C)N1c1ccc(-c2cnc3c(-c4ccc(N)c(S(N)(=O)=O)c4)cnn3c2)cc1` [Compound 85, 2-amino-5-(6-(4-((2R,6S)-2,6-dimethylpiperazin-1-yl)phenyl)pyrazolo[1,5-a]pyrimidin-3-yl)benzenesulfonamide], the pIC50 is 5.77 in assay [1]; 5.14 in assay [2]; 6.96 in assay [3]; 7.41 in assay [4]; 5.25 in assay [5]; below 5.00 in assay [6]. In addition, the results for the pIC50 in assay [7] and in assay [8] were below 5.00 and 6.92, respectively.
